pIC50: −log10 of the molar value. Like-named read-outs stand apart in the source and are kept apart here.
How the values were obtained:
FTO = FTO (Homo sapiens, UniProt Q9C0B1); test: demethylation reaction catalyzed by FTO (enzymatic inhibition, HPLC-MS/MS of N6-mA and A); assay type: biochemical
[1] = Rat liver microsome stability assay; assay type: in vitro ADME; settings: liver microsomes, pH 7.4, rat liver microsome 1 mg/ml, test compound 2 μM, NADPH 1 mM, 37° C.; for microsomal CLint at 1 h, 2 µM: read-out: Rat Liver Microsome CLint (μL/min/mg protein); for half-life at 1 h, 2 µM: read-out: Rat Liver Microsome T½
COMT enzyme = target: T1, COMT enzyme (Homo sapiens, UniProt P21964); test: COMT inhibition assay (reaction kinetic model, esculetin fluorescence); assay type: biochemical; settings: for inhibition at 0.05 µM: read-out: COMT inhibition at 50 nM; for inhibition at 0.2 µM: read-out: COMT inhibition at 200 nM
T1 construct: COMT (μM); other: at 200 nM; other: at 50 nM; The reaction system contains 1U COMT enzyme, test article, 4 μM Esculetin, 0.6 mM AdoMet, 50 mM K3PO4, and 10 mM MgCl2
T1 sequence (P21964 1-271): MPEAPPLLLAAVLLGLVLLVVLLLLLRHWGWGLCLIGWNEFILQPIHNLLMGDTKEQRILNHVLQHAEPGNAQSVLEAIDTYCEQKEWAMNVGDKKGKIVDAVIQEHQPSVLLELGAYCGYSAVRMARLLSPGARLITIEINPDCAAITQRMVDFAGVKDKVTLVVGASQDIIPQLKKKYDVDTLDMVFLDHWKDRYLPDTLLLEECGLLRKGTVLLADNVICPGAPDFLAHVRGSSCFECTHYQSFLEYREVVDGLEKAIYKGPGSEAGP

[2] = exemplary IC50 data of representative compounds, read-out: Enzymatic inhibition (IC50)
[3] = selectivity table, read-out: FTO

Chain of FTO (Q9C0B1 whole entry): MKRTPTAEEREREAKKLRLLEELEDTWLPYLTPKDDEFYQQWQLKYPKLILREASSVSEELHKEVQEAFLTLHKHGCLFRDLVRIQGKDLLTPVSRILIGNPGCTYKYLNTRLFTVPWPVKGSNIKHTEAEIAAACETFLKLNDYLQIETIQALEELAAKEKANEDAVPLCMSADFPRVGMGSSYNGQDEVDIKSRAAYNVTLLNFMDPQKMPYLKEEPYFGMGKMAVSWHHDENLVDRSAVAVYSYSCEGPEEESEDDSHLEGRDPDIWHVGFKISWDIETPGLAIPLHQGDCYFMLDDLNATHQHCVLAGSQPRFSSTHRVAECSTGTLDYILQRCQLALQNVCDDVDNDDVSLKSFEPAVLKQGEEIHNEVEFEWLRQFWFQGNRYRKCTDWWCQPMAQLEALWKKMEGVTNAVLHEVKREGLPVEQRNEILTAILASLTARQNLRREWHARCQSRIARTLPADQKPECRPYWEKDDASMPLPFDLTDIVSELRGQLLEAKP

`N#CC(=Cc1cc(O)c(O)c([N+](=O)[O-])c1)c1ccccn1` (stereo in doubt) [Compound 315, (E)-3-(3,4-dihydroxy-5-nitrophenyl)-2-(pyridin-2-yl)acrylonitrile] showed a pIC50 (FTO; [2]) of about 6.00, a pIC50 (FTO; [3]) of 6.00 and a microsomal CLint at 1 h, 2 µM [1] of 310 µL/min/mg. The half-life at 1 h, 2 µM [1] was 2.24 min, the inhibition at 0.05 µM (COMT enzyme) was 19% and the inhibition at 0.2 µM (COMT enzyme) was 70%.
`N#CC(=Cc1cc(O)c(O)c([N+](=O)[O-])c1)c1cccnn1` (stereo in doubt) [Compound 505, (E)-3-(3,4-dihydroxy-5-nitrophenyl)-2-(pyridazin-3-yl)acrylonitrile] gave a pIC50 (FTO; [2]) of over 6.00.
With `N#CC(=Cc1cc(O)c(O)c([N+](=O)[O-])c1)c1ccc[n+]([O-])c1` (stereo in doubt) [Compound 518, (E)-3-(1-cyano-2-(3,4-dihydroxy-5-nitrophenyl)vinyl)pyridine 1-oxide] the pIC50 (FTO; [2]) was under 6.00.
Molecule `N#C/C(=C\c1cc(O)c(O)c([N+](=O)[O-])c1)C(=O)N1CCCC1` [Compound 317] has a pIC50 (FTO; [2]) of under 6.00.
`N#C/C(=C\c1cc(O)c(O)c([N+](=O)[O-])c1)C(=O)Nc1ccccc1` [Compound 318] gave a pIC50 (FTO; [2]) of about 6.00.
With `N#C/C(=C\c1cc(O)c(O)c([N+](=O)[O-])c1)c1cccnc1` [Compound 319] the pIC50 (FTO; [2]) was over 6.00.
`N#C/C(=C\c1cc(O)c(O)c([N+](=O)[O-])c1)C(=O)Nc1nccs1` [Compound 331, (E)-2-cyano-3-(3,4-dihydroxy-5-nitrophenyl)-N-(thiazol-2-yl)acrylamide] showed a pIC50 (FTO; [2]) of about 6.00, a pIC50 (FTO; [3]) of 6.00 and a microsomal CLint at 1 h, 2 µM [1] of 7.4 µL/min/mg. For the same molecule, the half-life at 1 h, 2 µM [1] was 93.7 min, the inhibition at 0.05 µM (COMT enzyme) was 25% and the inhibition at 0.2 µM (COMT enzyme) was 54%.
With `N#C/C(=C\c1cc(O)c(O)c([N+](=O)[O-])c1)C(=O)Nc1nc2ccccc2s1` [Compound 333] the pIC50 (FTO; [2]) was under 6.00.
`CCN(CC)C(=O)/C(C#N)=C(\O)c1cc(O)c(O)c([N+](=O)[O-])c1` [Compound 347, 2-cyano-3-(3,4-dihydroxy-5-nitrophenyl)-N,N-diethyl-3-oxopropanamide] gave a microsomal CLint at 1 h, 2 µM [1] of 0.1 µL/min/mg, a half-life at 1 h, 2 µM [1] of 6930 min and a pIC50 (COMT enzyme) of 6.26.
`N#C/C(=C(/O)c1cc(O)c(O)c([N+](=O)[O-])c1)c1nc2ccccc2s1` [Compound 359] showed a pIC50 (FTO; [2]) of under 6.00.
`N#C/C(=C\c1cc(O)c(O)c([N+](=O)[O-])c1)C(=O)Nc1cccc(Cl)c1` [Compound 365] gave a pIC50 (FTO; [2]) of about 6.00.
`N#C/C(=C\c1cc(O)c(O)c([N+](=O)[O-])c1)C(=O)NCc1ccccc1` [Compound 366] gave a pIC50 (FTO; [2]) of under 6.00.
For `N#C/C(=C\c1cc(O)c(O)c([N+](=O)[O-])c1)C(=O)N1CCCCC1` [Compound 371, (E)-3-(3,4-dihydroxy-5-nitrophenyl)-2-(piperidine-1-carbonyl)acrylonitrile], the microsomal CLint at 1 h, 2 µM [1] was 43 µL/min/mg, the half-life at 1 h, 2 µM [1] was 16.1 min and the inhibition at 0.05 µM (COMT enzyme) was 33%. For the same molecule, the inhibition at 0.2 µM (COMT enzyme) was 71%.
In the case of `N#C/C(=C\c1cc(O)c(O)c([N+](=O)[O-])c1)C(=O)N1CCOCC1` [Compound 382], the pIC50 (FTO; [2]) was under 6.00.
In the case of `N#C/C(=C\c1cc(O)c(O)c([N+](=O)[O-])c1)c1ccncc1` [Compound 389], the pIC50 (FTO; [2]) was about 6.00.
Work on `N#C/C(=C\c1cc(O)c(O)c([N+](=O)[O-])c1)C(=O)c1nc2ccccc2[nH]1` [Compound 394, 2-(1H-benzo[d]imidazole-2-carbonyl)-3-(3,4-dihydroxy-5-nitrophenyl)acrylo-nitrile] yielded a pIC50 (FTO; [2]) of under 6.00.
Work on `Cc1ccc(/C(C#N)=C/c2cc(O)c(O)c([N+](=O)[O-])c2)nc1` [Compound 502] yielded a pIC50 (FTO; [2]) of over 6.00.
In the case of `N#C/C(=C\c1cc(O)c(O)c([N+](=O)[O-])c1)c1c[n+]([O-])ccn1` [Compound 520], the pIC50 (FTO; [2]) was over 6.00.
Molecule `N#C/C(=C\c1cc(O)c(O)c([N+](=O)[O-])c1)c1cncnc1` [Compound 522] has a pIC50 (FTO; [2]) of about 6.00.
Molecule `COc1cc(/C(O)=C(\C#N)c2cnccn2)cc([N+](=O)[O-])c1O` [Compound 524] has a pIC50 (FTO; [2]) of about 6.00.
With `N#C/C(=C\c1cc(O)c(O)c([N+](=O)[O-])c1)c1ncns1` [Compound 656, (E)-3-(3,4-dihydroxy-5-nitrophenyl)-2-(1,2,4-thiadiazol-5-yl)acrylonitrile] the pIC50 (FTO; [2]) was over 6.00.
`N#C/C(=C\c1cc(O)c(O)c([N+](=O)[O-])c1)C(=O)NO` [Compound 664] showed a pIC50 (FTO; [2]) of about 6.00.
With `N#C/C(=C\c1cc(O)c(O)c([N+](=O)[O-])c1)c1nc(C(=O)O)cs1` [Compound 666, (E)-2-(1-cyano-2-(3,4-dihydroxy-5-nitrophenyl)vinyl)thiazole-4-carboxylic Acid] the pIC50 (FTO; [2]) was over 6.00.
Work on `N#C/C(C(=O)Nc1ncns1)=C(/O)c1cc(O)c(O)c([N+](=O)[O-])c1` [Compound 668, 2-cyano-3-(3,4-dihydroxy-5-nitrophenyl)-3-hydroxy-N-(1,2,4-thiadiazol-5-yl)acrylamide] yielded a pIC50 (FTO; [2]) of over 6.00.
Molecule `N#C/C(C(=O)NCc1ccncn1)=C(/O)c1cc(O)c(O)c([N+](=O)[O-])c1` [Compound 673, (Z)-2-cyano-3-(3,4-dihydroxy-5-nitrophenyl)-3-hydroxy-N-(pyrimidin-4-ylmethyl)acrylamide] has a pIC50 (FTO; [2]) of over 6.00.
Molecule `COc1cc(/C(O)=C(\C#N)C(=O)NCc2ccncn2)cc([N+](=O)[O-])c1O` [Compound 674] has a pIC50 (FTO; [2]) of under 6.00.
Molecule `N#C/C(=C\c1cc(O)c(O)c([N+](=O)[O-])c1)C(=O)c1cc(O)no1` [Compound 675, (E)-3-(3,4-dihydroxy-5-nitrophenyl)-2-(3-hydroxyisoxazole-5-carbonyl)acrylonitrile] has a pIC50 (FTO; [2]) of under 6.00.
For `CCNC(=O)/C(C#N)=C/c1cc(O)c(O)c([N+](=O)[O-])c1` [Compound 684], the pIC50 (FTO; [2]) was under 6.00.
`N#C/C(=C\c1cc(O)c(O)c([N+](=O)[O-])c1)C(=O)NCCO` [Compound 688, (E)-2-cyano-3-(3,4-dihydroxy-5-nitrophenyl)-N-(2-hydroxyethyl)acrylamide] gave a pIC50 (FTO; [2]) of under 6.00.
`CCNC(=O)/C(C#N)=C(\O)c1cc(O)c(O)c([N+](=O)[O-])c1` [Compound 691, (Z)-2-cyano-3-(3,4-dihydroxy-5-nitrophenyl)-N-ethyl-3-hydroxyacrylamide] showed a pIC50 (FTO; [2]) of over 6.00.
Work on `CCNC(=O)/C(C#N)=C(\N)c1cc(O)c(O)c([N+](=O)[O-])c1` [Compound 691N, (Z)-3-amino-2-cyano-3-(3,4-dihydroxy-5-nitrophenyl)-N-ethylacrylamide] yielded a pIC50 (FTO; [2]) of about 6.00.
For `N#C/C(C(=O)NC1CC1)=C(/O)c1cc(O)c(O)c([N+](=O)[O-])c1` [Compound 692, (Z)-2-cyano-N-cyclopropyl-3-(3,4-dihydroxy-5-nitrophenyl)-3-hydroxyacrylamide], the pIC50 (FTO; [2]) was over 6.00.
`N#C/C(C(=O)NC1CC1)=C(/N)c1cc(O)c(O)c([N+](=O)[O-])c1` [Compound 692N, (Z)-3-amino-2-cyano-N-cyclopropyl-3-(3,4-dihydroxy-5-nitrophenyl)acrylamide] gave a pIC50 (FTO; [2]) of under 6.00.
Work on `N#C/C(=C\c1cc(O)c(O)c([N+](=O)[O-])c1)C(=O)N[C@@H](CO)C(=O)O` [Compound 693, (S,E)-2-(2-cyano-3-(3,4-dihydroxy-5-nitrophenyl)acrylamido)-3-hydroxypropanoic Acid] yielded a pIC50 (FTO; [2]) of about 6.00.
For `N#C/C(=C(/N)c1cc(O)c(O)c([N+](=O)[O-])c1)c1cnc(C(=O)O)cn1` [Compound 697N], the pIC50 (FTO; [2]) was over 6.00.
`N#C/C(=C\c1cc(O)c(O)c([N+](=O)[O-])c1)C(=O)c1cscn1` [Compound 698] gave a pIC50 (FTO; [2]) of under 6.00.
For `N#C/C(C(=O)N1CCC1)=C(/N)c1cc(O)c(O)c([N+](=O)[O-])c1` [Compound 701N, (Z)-3-amino-2-(azetidine-1-carbonyl)-3-(3,4-dihydroxy-5-nitrophenyl)acrylonitrile], the pIC50 (FTO; [2]) was under 6.00.
With `N#C/C(=C\c1cc(O)c(O)c([N+](=O)[O-])c1)C(=O)N1CCC[C@H]1C(=O)O` [Compound 702, (S,E)-1-(2-cyano-3-(3,4-dihydroxy-5-nitrophenyl)acryloyl)pyrrolidine-2-carboxylic Acid] the pIC50 (FTO; [2]) was about 6.00.
`N#C/C(=C\c1cc(O)c(O)c([N+](=O)[O-])c1)C(=O)NCC(=O)O` [Compound 709, (E)-2-(2-cyano-3-(3,4-dihydroxy-5-nitrophenyl)acrylamido)acetic Acid] showed a pIC50 (FTO; [2]) of over 6.00.
For `N#C/C(C(=O)c1cscn1)=C(/O)c1cc(O)c(O)c([N+](=O)[O-])c1` [Compound 711, (Z)-3-(3,4-dihydroxy-5-nitrophenyl)-3-hydroxy-2-(thiazole-4-carbonyl)acrylonitrile], the pIC50 (FTO; [2]) was about 6.00.
`N#C/C(C(=O)c1cscn1)=C(/N)c1cc(O)c(O)c([N+](=O)[O-])c1` [Compound 711N, ammonium (Z)-5-(1-amino-2-cyano-3-oxo-3-(thiazol-4-yl)prop-1-enyl)-2-hydroxy-3-nitrophenolate] gave a pIC50 (FTO; [2]) of under 6.00.
With `CC(NC(=O)/C(C#N)=C/c1cc(O)c(O)c([N+](=O)[O-])c1)C(=O)O` (centres unmarked) [Compound 712] the pIC50 (FTO; [2]) was about 6.00.
With `N#C/C(=C\c1cc(O)c(O)c([N+](=O)[O-])c1)C(=O)NC1COC1` [Compound 713] the pIC50 (FTO; [2]) was over 6.00.
Molecule `N#C/C(C(=O)N1CCCOC1)=C(/O)c1cc(O)c(O)c([N+](=O)[O-])c1` [Compound 715] has a pIC50 (FTO; [2]) of over 6.00.
In the case of `N#C/C(C(=O)Nc1cnccn1)=C(/O)c1cc(O)c(O)c([N+](=O)[O-])c1` [Compound 722], the pIC50 (FTO; [2]) was over 6.00.
With `CCN(CC)C(=O)/C(C#N)=C/c1cc(O)c(O)c([N+](=O)[O-])c1` [Entacapone, entacapone, reference compound] the microsomal CLint at 1 h, 2 µM [1] was 17.7 µL/min/mg and the half-life at 1 h, 2 µM [1] was 39.2 min.
